Reference: publication PMC9754190, “Human CYP2B6 produces oxylipins from polyunsaturated fatty acids and reduces diet-induced obesity” (PLOS ONE, 2022)

Columns and labels:
CYP2B6 [1] = biological target: T1, CYP2B6 (Homo sapiens, UniProt P20813); experiment: Vivid CYP2B6 Blue fluorescence inhibition assay with recombinant baculosomes; assay type: biochemical; set-up: CYP2B6-containing baculosomes
T1 sequence (P20813 1-491): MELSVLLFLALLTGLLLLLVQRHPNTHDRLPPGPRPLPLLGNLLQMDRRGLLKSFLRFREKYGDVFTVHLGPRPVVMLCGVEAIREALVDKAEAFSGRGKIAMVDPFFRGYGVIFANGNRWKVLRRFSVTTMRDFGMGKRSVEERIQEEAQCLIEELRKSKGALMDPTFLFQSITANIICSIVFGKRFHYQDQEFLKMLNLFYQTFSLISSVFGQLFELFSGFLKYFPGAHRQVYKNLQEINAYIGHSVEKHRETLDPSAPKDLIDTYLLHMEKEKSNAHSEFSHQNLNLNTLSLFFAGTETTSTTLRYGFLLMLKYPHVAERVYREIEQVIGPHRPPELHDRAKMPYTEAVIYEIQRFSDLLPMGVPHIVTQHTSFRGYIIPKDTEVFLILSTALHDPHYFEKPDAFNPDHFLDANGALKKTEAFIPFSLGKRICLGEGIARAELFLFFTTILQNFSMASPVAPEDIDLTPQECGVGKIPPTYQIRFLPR

CYP2B6 [2] = biological target: T1, CYP2B6; experiment: biochemical

SMILES	IC50 (CYP2B6 [1])	IC50 (CYP2B6 [2])
CCCCC/C=C\C/C=C\C/C=C\C/C=C\CCCC(=O)O [AA, arachidonic acid]	1510 nM	–
CCCCC/C=C\C/C=C\CCCCCCCC(=O)O [LA, linoleic acid]	2900 nM	–
CC/C=C\C/C=C\C/C=C\C/C=C\C/C=C\C/C=C\CCC(=O)O [DHA, docosahexaenoic acid]	2400 nM	–
CC/C=C\C/C=C\C/C=C\CCCCCCCC(=O)O [ALA, α-linolenic acid]	–	4480 nM
